DBAASP
Converted amounts (≈) assume the structure as drawn.

Tests used:
Test in all cases: ≥ marks a high value that may be exact or a test limit, other limits are often not marked, values filed in µg/mL are converted to µM
[1] = test system: Escherichia coli NEB5alpha
[2] = test system: Enterococcus faecium ATCC 700221
[3] = test system: Escherichia coli ATCC 25922
[4] = test system: Pseudomonas aeruginosa ATCC 27853
[5] = test system: Staphylococcus aureus ATCC 33591
[6] = test system: Bacillus subtilis ATCC 6051

Compound: CC[C@H](C)[C@H](NC(=O)[C@@H]1CCCN1C(=O)[C@H](CCSC)NC(=O)[C@H](CC(=O)O)NC(=O)[C@H](CCCN=C(N)N)NC(=O)[C@H](CCC(N)=O)NC(=O)[C@@H]1CCCN1C(=O)[C@H](Cc1ccc(O)cc1)NC(=O)[C@@H]1CCCN1C(=O)[C@@H](N)C(C)C)C(=O)N[C@@H](CCC(N)=O)C(=O)N[C@@H](C)C(=O)N[C@@H](Cc1ccccc1)C(=O)N[C@@H](CC(C)C)C(=O)O [VPYPQRDMPIQAFL]
- MIC [1]: ≥ 493 µM

Compound: CC[C@H](C)[C@H](NC(=O)[C@H](CCCCN)NC(=O)[C@H](CCCCN)NC(=O)[C@H](CC(C)C)NC(=O)[C@H](CC(C)C)NC(=O)[C@H](CCCCN)NC(=O)[C@H](CCCCN)NC(=O)[C@@H](NC(=O)[C@H](CCCN=C(N)N)NC(=O)[C@H](CCCCN)NC(=O)[C@H](CC(C)C)NC(=O)[C@H](CC(C)C)NC(=O)CN)[C@@H](C)CC)C(=O)N[C@@H](CCCCN)C(=O)N[C@@H](CCCCN)C(=O)N[C@@H](CC(C)C)C(=O)N[C@@H](CC(C)C)C(N)=O [GLLKRIKKLLKKIKKLL]
- MIC [2]: 6.3 µM (≈ 12.8 µg/mL)
- MIC [3]: 12.5 µM (≈ 25.4 µg/mL)
- MIC [4]: 12.5 µM (≈ 25.4 µg/mL)
- MIC [5]: 12.5 µM (≈ 25.4 µg/mL)

Compound: CC[C@H](C)[C@H](NC(=O)[C@H](Cc1c[nH]c2ccccc12)NC(=O)[C@@H]1CCCN1C(=O)[C@H](CCCCN)NC(=O)[C@H](CCSC)NC(=O)[C@H](C)NC(=O)[C@H](CCCCN)NC(=O)[C@H](CCC(N)=O)NC(=O)[C@H](Cc1cnc[nH]1)NC(=O)[C@H](CCC(N)=O)NC(=O)[C@H](Cc1ccc(O)cc1)NC(=O)[C@@H](NC(=O)[C@@H](N)[C@@H](C)O)C(C)C)C(=O)N[C@@H](CCC(N)=O)C(=O)N1CCC[C@H]1C(=O)N[C@@H](CCCCN)C(=O)N[C@H](C(=O)N[C@@H](CCCCN)C(=O)N[C@H](C(=O)N[C@H](C(=O)N1CCC[C@H]1C(=O)N[C@@H](Cc1ccc(O)cc1)C(=O)N[C@H](C(=O)N[C@@H](CCCN=C(N)N)C(=O)N[C@@H](Cc1ccc(O)cc1)C(=O)N[C@@H](CC(C)C)C(=O)O)C(C)C)[C@@H](C)CC)C(C)C)[C@@H](C)O [TVYQHQKAMKPWIQPKTKVIPYVRYL]
- MIC [6]: 2.67 µM (≈ 8.6 µg/mL)
- MIC [3]: 171 µM (≈ 550 µg/mL)
- MIC [1]: 21.4 µM (≈ 68.8 µg/mL)

Compound: CC(C)C[C@H](NC(=O)[C@H](CC(C)C)NC(=O)[C@H](CCC(N)=O)NC(=O)[C@H](CCC(=O)O)NC(=O)[C@H](CC(C)C)NC(=O)[C@@H](N)Cc1ccc(O)cc1)C(=O)N[C@@H](CCCN=C(N)N)C(=O)O [YLEQLLR]
- MIC [6]: ≥ 53.5 µM
- MIC [3]: 40.1 µM (≈ 37.5 µg/mL)
- MIC [1]: ≥ 241 µM

Compound: CC[C@H](C)[C@H](NC(=O)[C@@H](N)Cc1cnc[nH]1)C(=O)N[C@@H](CCC(N)=O)C(=O)N[C@@H](CCCCN)C(=O)N[C@@H](CCC(=O)O)C(=O)N[C@@H](CC(=O)O)C(=O)N[C@H](C(=O)N1CCC[C@H]1C(=O)N[C@@H](CO)C(=O)N[C@@H](CCC(=O)O)C(=O)N[C@@H](CCCN=C(N)N)C(=O)N[C@@H](Cc1ccc(O)cc1)C(=O)N[C@@H](CC(C)C)C(=O)NCC(=O)N[C@@H](Cc1ccc(O)cc1)C(=O)N[C@@H](CC(C)C)C(=O)N[C@@H](CCC(=O)O)C(=O)N[C@@H](CCC(N)=O)C(=O)N[C@@H](CC(C)C)C(=O)N[C@@H](CC(C)C)C(=O)N[C@@H](CCCN=C(N)N)C(=O)N[C@@H](CC(C)C)C(=O)N[C@@H](CCCCN)C(=O)O)C(C)C [HIQKEDVPSERYLGYLEQLLRLK]
- MIC [6]: ≥ 292 µM
- MIC [3]: 583 µM (≈ 1650 µg/mL)
- MIC [1]: ≥ 292 µM

Compound: NCCCC[C@H](NC(=O)[C@H](CCC(=O)O)NC(=O)[C@H](CC(=O)O)NC(=O)[C@H](CCC(=O)O)NC(=O)[C@H](CC(=O)O)NC(=O)[C@H](CCC(=O)O)NC(=O)[C@@H](N)CC(=O)O)C(=O)N[C@@H](CCCN=C(N)N)C(=O)N[C@@H](CCC(N)=O)C(=O)N1CCC[C@H]1C(=O)N[C@@H](Cc1cnc[nH]1)C(=O)O [DEDEDEKRQPH]
- MIC [6]: ≥ 500 µM
- MIC [1]: ≥ 1000 µM
